Experimental findings from patent US20230056205A1, “SUBSTITUTED 4,6-DIHYDROSPIRO[[1,2,3]TRIAZOLO[4,5-B]PYRIDINE-7,3'-INDOLINE]-2',5(3H)-DIONE ANALOGUES” (The Board of Regents of The University of Texas System, priority 2019, published 2023) are described below.

By EC50 is commonly meant the midpoint of the concentration-response curve. The CC50 is the concentration giving 50% cytotoxicity. Low readings indicate harm at low concentration, high ones better tolerance by the cells.

Where two headings read alike, the source gives them in different places. Bounds are passed on as bounds.

The test system of series [1] is DENV-3 replicon. The series can be described thus: Luciferase reporter replicon-based screening, DENV-3. The series is classed as cell-based, DENV-3 (strain D3MY05-34640). As for the experimental part: (§1) Luciferase Reporter Replicon-Based Screening. Huh7 cells containing a luciferase reporter replicon of DENV-1 (strain WestPac), DENV-2 (New Guinea C strain, NGC), DENV-3 (strain D3MY05-34640) and DENV-4 (strain D4MY01-22713) were used in this study. The replicon cells containing the Renilla luciferase and neomycin-resistance genes were generated using a similar strategy as described previously.^55 Briefly, Huh7 DENV-1 to -4 replicon cells were seeded at a density of 10k per well in a 96-well microplate. After incubation at 37° C. with 5% CO2 overnight, the cells were treated with 2-fold serial dilutions of compounds. Experiments were performed in duplicates. After 48 h of incubation, luciferase activities were measured using the EnduRen live-cell substrate (Promega) by following the manufacturer’s instructions. The dose-dependent curve was plotted and EC50 values were calculated using four parameter logistic regression in GraphPad software Prism 8.0.
(Reporter assays use an easily measured gene product as a stand-in for the process of interest.)

Series [2] deals with DENV-2 replicon. The series can be described thus: Luciferase reporter replicon-based screening, DENV-2. It counts as cell-based, DENV-2 (New Guinea C strain, NGC). Here is the method:
as §1

Series [3] deals with DENV-1 replicon. The series is described as follows: Luciferase reporter replicon-based screening, DENV-1. As to conditions: Dengue virus, DENV1, Huh-7, 48 h, read-out: EC50 DENV-1. It counts as cell-based, DENV-1 (strain WestPac). Here is the method: as §1
Series [4] in a line: Cytotoxicity assay (CellTiter-Glo). It counts as cell-based. As to conditions: human, Huh7 cells stably expressing DENV-2 replicon. Here is the method: Cytotoxicity Assay. Huh7 cells or Huh7 replicon cells were seeded in a 96-well plate. After incubation at 37° C. with 5% CO2 overnight, the cells were treated with 2-fold serial dilutions of compounds. Experiments were performed in duplicates. After 48 h of incubation, cell viability was measured by adding the CellTiter-Glo reagent (Promega) to each well. The cell viability in 0.45% DMSO-treatment groups was treated at 100%. The cell viability in compound-treated wells was normalized to that of DMSO-treated wells. CC50 values were calculated using four parameter logistic regression in GraphPad software Prism 8.0.

Series [5] concerns DENV-4 replicon. The series is described as follows: Luciferase reporter replicon-based screening, DENV-4. The series is classed as cell-based, DENV-4 (strain D4MY01-22713). As to conditions: Dengue virus, DENV4, Huh-7, 48 h, read-out: EC50 DENV-4. As for the experimental part:
as §1

[6] abbreviates: Dengue virus, DENV3, Huh-7, 48 h, read-out: EC50 DENV-3, Huh7 cells stably expressing DENV-3 replicon, 48 h.
[7] abbreviates: Dengue virus, DENV2, Huh-7, 48 h, read-out: EC50 DENV-2, Huh7 cells stably expressing DENV-2 replicon, 48 h.
[8] abbreviates: read-out: EC50 DENV-3, Huh7 cells stably expressing DENV-3 replicon, 48 h.
Where [9] appears, read: read-out: EC50 DENV-2, Huh7 cells stably expressing DENV-2 replicon, 48 h.

Regarding `C[C@@H](c1ccc(Cl)cc1)n1nnc2c1NC(=O)C[C@]21C(=O)N(CCN2CCCC2)c2ccc(Cl)cc21` [Compound 58, (R)-5'-Chloro-3-((S)-1-(4-chlorophenyl)ethyl)-1'-(2-(pyrrolidin-1-yl)ethyl)-4,6-dihydrospiro[[1,2,3]triazolo[4,5-b]pyridine-7,3'-indoline]-2',5(3H)-dione], the concentration giving a half-maximal response (EC50) was 6 nM in series [1] (setting [6]), 38 nM in series [2] (setting [7]), over 5000 nM in series [3] and over 5000 nM in series [5]. In series [4], this compound gave a CC50 at 48 h of over 10000 nM.
On to `CC(C)N1C(=O)C[C@]2(C(=O)Nc3ccc(Cl)cc32)c2nnn([C@@H](C)c3ccc(Cl)cc3)c21` [Compound 21, (R)-5'-Chloro-3-((S)-1-(4-chlorophenyl)ethyl)-4-isopropyl-4,6-dihydrospiro[[1,2,3]triazolo[4,5-b]pyridine-7,3'-indoline]-2',5(3H)-dione], for which the EC50 in series [1] (setting [6]) stood at 310 nM; in series [2] (setting [7]), 860 nM; in series [3], 2100 nM; in series [5], 4400 nM. The compound also had a CC50 at 48 h in series [4] of over 10000 nM.
As for `CCCCN1C(=O)[C@]2(CC(=O)Nc3c2nnn3[C@@H](C)c2ccc(Cl)cc2)c2cc(Cl)ccc21` [Compound 10, (R)-1'-Butyl-5'-chloro-3-((S)-1-(4-chlorophenyl)ethyl)-4,6-dihydrospiro[[1,2,3]triazolo[4,5-b]pyridine-7,3'-indoline]-2',5(3H)-dione], the EC50 in series [1] (setting [6]) was 18 nM; in series [2] (setting [7]), 75 nM; in series [3] it was 1300 nM; in series [5], over 5000 nM. This compound also showed a 50% cytotoxic concentration (CC50) at 48 h in series [4] of over 10000 nM.
As for `C[C@@H](c1ccc(Cl)cc1)n1nnc2c1NC(=O)C[C@]21C(=O)N(CCCN2CCOCC2)c2ccc(Cl)cc21` [Compound 65, (R)-5'-Chloro-3-((S)-1-(4-chlorophenyl)ethyl)-1'-(3-morpholinopropyl)-4,6-dihydrospiro[[1,2,3]triazolo[4,5-b]pyridine-7,3'-indoline]-2',5(3H)-dione], the EC50 was 5 nM in series [1] (setting [6]), 76 nM in series [2] (setting [7]), over 5000 nM in series [3] and over 5000 nM in series [5]. This compound displayed a CC50 at 48 h in series [4] of over 10000 nM.
As for `COc1cc(CN2C(=O)[C@]3(CC(=O)Nc4c3nnn4[C@@H](C)c3ccc(Cl)cc3)c3cc(Cl)ccc32)cc(OC)c1` [Compound 30, (R)-5'-Chloro-3-((S)-1-(4-chlorophenyl)ethyl)-1'-(3,5-dimethoxybenzyl)-4,6-dihydrospiro[[1,2,3]triazolo[4,5-b]pyridine-7,3'-indoline]-2',5(3H)-dione], the EC50 in series [1] (setting [6]) came out at 790 nM; in series [2] (setting [7]), 3100 nM; in series [3] it was 3400 nM; in series [5] it was 7400 nM. The CC50 at 48 h in series [4] is over 10000 nM.
For `C[C@@H](c1ccc(Cl)cc1)n1nnc2c1NC(=O)C[C@]21C(=O)N(CCO)c2ccc(Cl)cc21` [Compound 42, (R)-5'-Chloro-3-((S)-1-(4-chlorophenyl)ethyl)-1'-(2-hydroxyethyl)-4,6-dihydrospiro[[1,2,3]triazolo[4,5-b]pyridine-7,3'-indoline]-2',5(3H)-dione], the concentration for a half-maximal effect (EC50) is 9 to 76 nM in series [1] (setting [6]); 10 nM in series [1] (setting [8]); 37 to 290 nM in series [2] (setting [7]); 37 nM in series [2] (setting [9]); over 5000 nM in series [3]; over 5000 nM in series [5]. Besides, the CC50 at 48 h in series [4] was over 10000 nM.
Regarding `C=CCN1C(=O)[C@]2(CC(=O)Nc3c2nnn3[C@@H](C)c2ccc(Cl)cc2)c2cc(Cl)ccc21` [Compound 18, (R)-1'-Allyl-5'-chloro-3-((S)-1-(4-chlorophenyl)ethyl)-4,6-dihydrospiro[[1,2,3]triazolo[4,5-b]pyridine-7,3ʹ-indoline]-2',5(3H)-dione], the 50% effective concentration (EC50) in series [1] (setting [6]) was 5 nM; in series [2] (setting [7]), 38 nM; in series [3] it was 2100 nM; in series [5], over 5000 nM. Also, in series [4], the cytotoxic concentration (CC50) at 48 h is over 10000 nM.
For `CNCCN1C(=O)[C@]2(CC(=O)Nc3c2nnn3[C@@H](C)c2ccc(Cl)cc2)c2cc(Cl)ccc21` [Compound 62, (R)-5'-chloro-3-((S)-1-(4-chlorophenyl)ethyl)-1'-(2-(methylamino)ethyl)-4,6-dihydrospiro[[1,2,3]triazolo[4,5-b]pyridine-7,3'-indoline]-2',5(3H)-dione] the same measures were 22 nM, 120 nM, over 5000 nM, over 5000 nM and over 10000 nM.
The like results for `COC(=O)CN1C(=O)C[C@]2(C(=O)Nc3ccc(Cl)cc32)c2nnn([C@@H](C)c3ccc(Cl)cc3)c21` [Compound 44, Methyl 2-((R)-5'-chloro-3-((S)-1-(4-chlorophenyl)ethyl)-2',5-dioxo-5,6-dihydrospiro[[1,2,3]triazolo[4,5-b]pyridine-7,3'-indolin]-4(3H)-yl)acetate] were, in that order, 2700 nM, over 10000 nM, over 10000 nM, over 10000 nM and over 10000 nM.
Consider `C[C@@H](c1ccc(Cl)cc1)n1nnc2c1NC(=O)C[C@]21C(=O)N(CC2CC2)c2ccc(Cl)cc21` [Compound 17, (R)-5'-Chloro-3-((S)-1-(4-chlorophenyl)ethyl)-1'-(cyclopropylmethyl)-4,6-dihydrospiro[[1,2,3]triazolo[4,5-b]pyridine-7,3'-indoline]-2',5(3H)-dione], for which the EC50 in series [1] (setting [6]) is 17 nM; in series [2] (setting [7]), 110 nM; in series [3] it was 3100 nM; in series [5], over 5000 nM. In series [4], this compound had a CC50 at 48 h of over 10000 nM.
Regarding `COCCCN1C(=O)[C@]2(CC(=O)Nc3c2nnn3[C@@H](C)c2ccc(Cl)cc2)c2cc(Cl)ccc21` [Compound 39, (R)-5'-Chloro-3-((S)-1-(4-chlorophenyl)ethyl)-1'-(3-methoxypropyl)-4,6-dihydrospiro[[1,2,3]triazolo[4,5-b]pyridine-7,3'-indoline]-2',5(3H)-dione], the EC50 in series [1] (setting [6]) was 9 to 76 nM; in series [1] (setting [8]), 9 nM; in series [2] (setting [7]), 37 to 290 nM; in series [2] (setting [9]), 40 nM; in series [3], over 5000 nM; in series [5], over 5000 nM. In series [4], this compound gave a CC50 at 48 h of over 10000 nM.
Consider `C[C@@H](c1ccc(Cl)cc1)n1nnc2c1NC(=O)C[C@]21C(=O)N(CCN2CCCCC2)c2ccc(Cl)cc21` [Compound 56, (R)-5'-Chloro-3-((S)-1-(4-chlorophenyl)ethyl)-1'-(2-(piperidin-1-yl)ethyl)-4,6-dihydrospiro[[1,2,3]triazolo[4,5-b]pyridine-7,3'-indoline]-2',5(3H)-dione], for which the 50% effective concentration (EC50) in series [1] (setting [6]) was 5 nM; in series [2] (setting [7]), 74 nM; in series [3], over 5000 nM; in series [5], over 5000 nM. Also, the CC50 at 48 h in series [4] is over 10000 nM.
In the case of `C[C@@H](c1ccc(Cl)cc1)n1nnc2c1NC(=O)C[C@]21C(=O)N(Cc2ccncc2)c2ccc(Cl)cc21` [Compound 35, (R)-5'-Chloro-3-((S)-1-(4-chlorophenyl)ethyl)-1'-(pyridin-4-ylmethyl)-4,6-dihydrospiro[[1,2,3]triazolo[4,5-b]pyridine-7,3'-indoline]-2',5(3H)-dione], the EC50 is 25 nM in series [1] (setting [6]), 72 nM in series [2] (setting [7]), over 5000 nM in series [3] and over 5000 nM in series [5]. Further, in series [4], the 50% cytotoxic concentration (CC50) at 48 h was over 10000 nM.
Regarding `CCCCCCN1C(=O)[C@]2(CC(=O)Nc3c2nnn3[C@@H](C)c2ccc(Cl)cc2)c2cc(Cl)ccc21` [Compound 11, (R)-5'-Chloro-3-((S)-1-(4-chlorophenyl)ethyl)-1'-hexyl-4,6-dihydrospiro[[1,2,3]triazolo[4,5-b]pyridine-7,3'-indoline]-2',5(3H)-dione], the EC50 in series [1] (setting [6]) is 140 nM; in series [2] (setting [7]) it was 810 nM; in series [3], 830 nM; in series [5], over 5000 nM. The cytotoxic concentration (CC50) at 48 h in series [4] was over 10000 nM.
For `C[C@@H](c1ccc(Cl)cc1)n1nnc2c1NC(=O)C[C@]21C(=O)N(CCN2CCN(C)CC2)c2ccc(Cl)cc21` [Compound 59, (R)-5'-Chloro-3-((S)-1-(4-chlorophenyl)ethyl)-1'-(2-(4-methylpiperazin-1-yl)ethyl)-4,6-dihydrospiro[[1,2,3]triazolo[4,5-b]pyridine-7,3'-indoline]-2',5(3H)-dione] the same measures were 30 nM, 300 nM, over 5000 nM, over 5000 nM and over 10000 nM.
